The source of these data is patent publication US5661165A, “((4-phenyl-1,2,5-thiadiazol-3-yl)oxy)methyl ester thiocyanic acid compounds, compositions containing them and their use as antimicrobial and marine antifouling agents” (The Dow Chemical Company, priority 1996, dated 1997).

The test system of one assay is Bacillus subtilis (Bs). The assay can be described thus: MIC against bacteria (nutrient agar). It is filed as cell-based, Bacillus subtilis ATCC 8473. The settings on record: 30° C., 48 h, read-out: Minimum Inhibitory Concentration, Bs.
The subject of assay [1] is Enterobacter aerogenes (Ea). The assay is described as follows: MIC against bacteria (nutrient agar). The class given is cell-based, Enterobacter aerogenes ATCC 13048. As to conditions: Klebsiella aerogenes, 30° C., 48 h, read-out: Minimum Inhibitory Concentration, Ea.
For a further assay, the system named is Proteus vulgaris (PV). The assay can be described thus: MIC against bacteria (nutrient agar). The class given is cell-based, Proteus vulgaris ATCC 881. The settings on record: 30° C., 48 h, read-out: Minimum Inhibitory Concentration, Pv.
Assay [2] has as its system Psuedomonas aeruginosa (PRD-10). The assay is described as follows: MIC against bacteria (nutrient agar). The class given is cell-based, Psuedomonas aeruginosa ATCC 15442. The settings on record: 30° C., 48 h, read-out: Minimum Inhibitory Concentration, PRD.
The test system of assay [3] is Salmonella choleraesuis (Sc). The assay is described as follows: MIC against bacteria (nutrient agar). It is filed as cell-based, Salmonella choleraesuis ATCC 10708. The settings on record: Salmonella enterica, 30° C., 48 h, read-out: Minimum Inhibitory Concentration, Sc.
A further assay concerns Aperigillus niger (An). The assay is described as follows: MIC against yeast/fungi (malt yeast agar). The class given is cell-based, Aperigillus niger ATCC 16404. The settings on record: 30° C., fungi read after 72 h, read-out: Minimum Inhibitory Concentration, An. Here is the method: (§1) The antimicrobial activity of the compounds of the present invention is set forth as the minimum inhibitory concentration (MIC) for the active compounds and is determined for nine (9) bacteria, using nutrient agar, and seven (7) yeast and fungi, using malt yeast agar. This determination is conducted using a one percent solution of the test compound prepared in a mixture of acetone and water.
(§2) Malt yeast agar is prepared by adding 3 g yeast extract and 45 g malt agar per liter of deionized water. The specific agar is dispensed in 30 mL aliquots into 25×200 mm test tubes, capped and autoclaved for 15 minutes at 115° C.
(§3) The test tubes containing the agar are cooled in a water bath until the temperature of the agar is 48° C. Then, an appropriate amount of the one percent solution of the test compound is added (except in the controls where no compound is added) to the respective test tubes so that the final concentrations are 500, 250, 100, 50, 25, 10, 5, 2.5, 1.0 and zero parts per million of the test compound in the agar, thus having a known concentration of test compound dispersed therein. The contents of the test tubes are then transferred to respective petri plates. After drying for 24 hours, the petri plates containing nutrient agar are inoculated with bacteria and those containing malt yeast agar are inoculated with yeast and fungi.
(§4) The inoculation with the yeast and fungi is accomplished as follows. Cultures of yeast and fungi are incubated for seven days on malt yeast agar at 30° C. These cultures are used to prepare suspensions by the following procedure. A suspension of each organism is prepared by adding 10 mL of sterile saline and 10 microliters of octylphenoxy polyethoxy ethanol to the agar slant of yeast or fungi. The sterile saline/octylphenoxy polyethoxy ethanol solution is then agitated with a sterile swab to suspend the microorganism grown on the slant. Each resulting suspension is diluted into sterile saline (1 part suspension to 9 parts sterile saline). Aliquots of these dilutions are placed in individual wells of Steer's Replicator and petri plates inoculated as previously described. The petri plates are incubated at 30° C. and read after 48 hours for yeast and 72 hours for fungi.
(§5) Table I lists the bacteria, yeast and fungi used in the MIC test described above along with their respective American Type Culture Collection (ATCC) identification numbers.

Assay [4] concerns Pencillium chrysogenum (Pc). The assay is described as follows: MIC against yeast/fungi (malt yeast agar). It is filed as cell-based, Pencillium chrysogenum ATCC 9480. As to conditions: 30° C., fungi read after 72 h, read-out: Minimum Inhibitory Concentration, Pc. The protocol:
as §1, §2, §3, §4, §5

Assay [5] concerns Saccharomyces cerevisiae (Sc). The assay is described as follows: MIC against yeast/fungi (malt yeast agar). The class given is cell-based, Saccharomyces cerevisiae ATCC 4105. The settings on record: 30° C., yeast read after 48 h, read-out: Minimum Inhibitory Concentration, Sc. Here is the method:
as §1, §2, §3, §4, §5

The subject of a further assay is Trichoderma viride (Tv). The assay is described as follows: MIC against yeast/fungi (malt yeast agar). The class given is cell-based, Trichoderma viride ATCC 8678. As to conditions: 30° C., fungi read after 72 h, read-out: Minimum Inhibitory Concentration, Tv. Here is the method:
as §1, §2, §3, §4, §5

The next assay deals with Fusarium oxysporum (Fo). The assay can be described thus: MIC against yeast/fungi (malt yeast agar). The class given is cell-based, Fusarium oxysporum ATCC 48112. As to conditions: 30° C., fungi read after 72 h, read-out: Minimum Inhibitory Concentration, Fo. Here is the method: as §1, §2, §3, §4, §5
The test system of the next assay is marine organisms. The assay is described as follows: Marine antifouling rating on test panels exposed to the marine environment. Here is the method:
Test panels are prepared from clear, rigid polyvinyl chloride film that is 0.381×10^-3 m thick and has one textured surface. The test panels are 0.1524 m by 0.1524 m squares that have 0.00635 m holes punched at corners on 0.127 m centers. A 0.102 square template, with a 0.067 m diameter hole at the center, is attached to the center of the textured surface of the test panels.
The candidate marine antifoulant compound (1.0 g) is stirred into a resinous latex binder (9.0 g). A portion of the compound/binder mixture (1.5 g) is added to the center of the test panel and uniformly spread over the circular area inside the template.
Water is added dropwise as needed to properly spread the compound/binder mixture. The template prevents the compound/binder mixture from spreading beyond the uncovered area. The test panel is allowed to sit for between 10 to 30 minutes until the edge of the spread compound/binder mixture has dried. The template is then removed. The test panel is then allowed to dry for 8 to 12 hours at room temperature.
Two test panels are prepared for each candidate marine antifoulant compound. Two control test panels are also prepared by only treating with the resinous latex binder. One test panel of each candidate marine antifoulant compound is attached over a white background to the topside of an exposure support apparatus. The second test panel is attached over a black background to the underside of the exposure support apparatus. The exposure support apparatus is placed horizontally 0.0254 m under a marine surface with the white background topside facing up. […]
After being removed from the exposure support apparatus, each test panel is inspected and rated for marine organism growth on both the treated and untreated areas of the test panel. The marine organisms present on the treated and untreated areas are noted. The presence of algae spores and bacterial slime are noted but not included in rating each test panel. The test panels are rated on a scale from 10 (representing completely free of marine organism growth) to 0 (representing completely covered with marine organism growth).
In Table IV, the marine antifouling rating values for ((4-phenyl-1,2,5-thiadiazol-3-yl)oxy)methyl ester is set forth, as well as the ratings for control panels (with no marine antifouling compound and referred to as "Control").

[6] abbreviates: 16 weeks, scale 10 (completely free of growth) to 0 (completely covered), control --.

In brackets after ≈: the same amount, converted by molar mass. Like-named read-outs stand apart in the source and are kept apart here.

Turning to `N#CSCOc1nsnc1-c1ccccc1` [Example I, ((4-Phenyl-1,2,5-thiadiazol-3-yl)oxy)methyl ester thiocyanic acid], the MIC in the assay on Bacillus subtilis (Bs) (pH 6.8, nutrient agar) is less than 10 mg/L; in the assay with Bacillus subtilis (Bs) (pH 8.2, nutrient agar), less than 10 mg/L; in [1] (pH 6.8, nutrient agar) it was greater than 500 mg/L; in assay [1] (pH 8.2, nutrient agar), 500 mg/L (≈ 2010 µM); in the assay with Proteus vulgaris (PV) (pH 6.8, nutrient agar) it was greater than 500 mg/L; in the assay with Proteus vulgaris (PV) (pH 8.2, nutrient agar), 500 mg/L (≈ 2010 µM). Also, the MIC in [2] (pH 6.8, nutrient agar) is greater than 500 mg/L; in assay [2] (pH 8.2, nutrient agar) it was greater than 500 mg/L; in assay [3] (pH 6.8, nutrient agar), 500 mg/L (≈ 2010 µM); in assay [3] (pH 8.2, nutrient agar), greater than 500 mg/L; in the assay with Aperigillus niger (An) it was less than 1 mg/L; in assay [4], less than 1 mg/L. Further, the MIC in assay [5] was found to be 2.5 mg/L (≈ 10 µM); with Trichoderma viride (Tv), 25 mg/L (≈ 100 µM); with Fusarium oxysporum (Fo), 5 mg/L (≈ 20.1 µM). The “Marine Antifouling Rating, Bottom Panel” value came to 9 in the assay with marine organisms (6 weeks, scale 10 (completely free of growth) to 0 (completely covered), control 0); 7 with marine organisms (10 weeks, scale 10 (completely free of growth) to 0 (completely covered), control 0); 2 in the assay on marine organisms (setting [6]). Further, the “Marine Antifouling Rating, Top Panel” value stood at 8 with marine organisms (6 weeks, scale 10 (completely free of marine organism growth) to 0 (completely covered), control 6); 3 in the assay on marine organisms (10 weeks, scale 10 (completely free of growth) to 0 (completely covered), control 3); 8 with marine organisms (setting [6]).
